According to US11445724B2, “Insecticidal compounds” (SYNGENTA PARTICIPATIONS AG, priority 2013, dated 2022):

Experiments:
Assay type in all cases: in vivo
[1] = test system: Thrips tabaci (Onion thrips); experiment: Thrips tabaci (Onion thrips) mortality, sprayed sunflower leaf discs; conditions: foliar, 168 h, 200 ppm spray on sunflower leaf discs, mixed ages, mortality after 7 days
[2] = test system: Spodoptera littoralis (Egyptian cotton leafworm); experiment: Spodoptera littoralis (Egyptian cotton leafworm) mortality, sprayed cotton leaf discs; conditions: foliar, 72 h, 200 ppm spray on cotton leaf discs, L1 larvae, mortality 3 DAT
[3] = test system: Plutella xylostella (Diamond back moth); experiment: Plutella xylostella (Diamond back moth) larval mortality, artificial diet in 24-well MTP; conditions: 144 h, application rate 200 ppm (concentration in well 18 ppm), L2 larvae, larval mortality after 6 days
[4] = test system: Diabrotica balteata (Corn root worm); experiment: Diabrotica balteata (Corn root worm) larval mortality, artificial diet in 24-well MTP; conditions: 120 h, application rate 200 ppm (concentration in well 18 ppm), L2 larvae, larval mortality after 5 days
[5] = test system: Myzus persicae (Green peach aphid); experiment: Myzus persicae (Green peach aphid) mortality, sprayed sunflower leaf discs; conditions: foliar, 144 h, 200 ppm spray on sunflower leaf discs, mixed ages, mortality 6 DAT

Measured: pest or weed control at 200 ppm

O=C(Nc1cccc(C(=O)Nc2c(Br)cc(C(F)(C(F)(F)F)C(F)(F)F)cc2OC(F)F)c1F)c1ccccc1C(F)(F)F [Compound 34]
≥ 80%: [1] | [2] | [3]

O=C(Nc1cccc(C(=O)Nc2c(Br)cc(C(F)(C(F)(F)F)C(F)(F)F)cc2OC(F)F)c1F)c1cc(C(F)(F)F)ccc1F [Compound 42]
≥ 80%: [1] | [2] | [4] | [3]

COc1c(NC(=O)c2ccc(F)c(C(F)(F)F)c2)cccc1C(=O)Nc1c(Br)cc(C(F)(C(F)(F)F)C(F)(F)F)cc1OC(F)F [Compound 52]
≥ 80%: [1] | [2] | [4] | [3] | [5]

O=C(Nc1cccc(C(=O)Nc2c(Cl)cc(C(F)(C(F)(F)F)C(F)(F)F)cc2OC(F)F)c1F)c1cc(Cl)ccc1F [Compound 55]
≥ 80%: [1] | [2] | [4] | [3]

COc1ccccc1C(=O)Nc1cccc(C(=O)Nc2c(Br)cc(C(F)(C(F)(F)F)C(F)(F)F)cc2OC(F)F)c1OC [Compound 58]
≥ 80%: [1] | [2] | [4] | [3]

COc1c(NC(=O)c2ccccc2C(F)(F)F)cccc1C(=O)Nc1c(Br)cc(C(F)(C(F)(F)F)C(F)(F)F)cc1OC(F)F [Compound 63]
≥ 80%: [1] | [2] | [4] | [3] | [5]

O=C(Nc1cccc(C(=O)Nc2c(Cl)cc(C(F)(C(F)(F)F)C(F)(F)F)cc2OC(F)F)c1F)c1ccccc1OC(F)(F)F [Compound 65]
≥ 80%: [2]

COc1c(NC(=O)c2cccc(F)c2F)cccc1C(=O)Nc1c(Br)cc(C(F)(C(F)(F)F)C(F)(F)F)cc1OC(F)F [Compound 69]
≥ 80%: [1] | [2] | [4] | [3] | [5]

O=C(Nc1cccc(C(=O)Nc2c(Cl)cc(C(F)(C(F)(F)F)C(F)(F)F)cc2OC(F)F)c1F)c1ccccc1C(F)(F)F [Compound 72]
≥ 80%: [2] | [3]

COc1c(NC(=O)c2cc(C(F)(F)F)ccc2F)cccc1C(=O)Nc1c(Br)cc(C(F)(C(F)(F)F)C(F)(F)F)cc1OC(F)F [Compound 73]
≥ 80%: [2] | [5]

COc1c(NC(=O)c2ccccc2F)cccc1C(=O)Nc1c(Cl)cc(C(F)(C(F)(F)F)C(F)(F)F)cc1OC(F)F [Compound 75]
≥ 80%: [1] | [2] | [3]

O=C(Nc1cccc(C(=O)Nc2c(Cl)cc(C(F)(C(F)(F)F)C(F)(F)F)cc2OC(F)F)c1F)c1cc(C(F)(F)F)ccc1F [Compound 80]
≥ 80%: [1] | [2] | [4] | [3]

COc1c(NC(=O)c2ccc(C)cc2)cccc1C(=O)Nc1c(Cl)cc(C(F)(C(F)(F)F)C(F)(F)F)cc1OC(F)F [Compound 82]
≥ 80%: [1] | [2] | [4] | [3] | [5]

COc1c(NC(=O)c2cc(Cl)ccc2F)cccc1C(=O)Nc1c(Cl)cc(C(F)(C(F)(F)F)C(F)(F)F)cc1OC(F)F [Compound 85]
≥ 80%: [2]

COc1c(NC(=O)c2ccc(F)c(C(F)(F)F)c2)cccc1C(=O)Nc1c(Cl)cc(C(F)(C(F)(F)F)C(F)(F)F)cc1OC(F)F [Compound 88]
≥ 80%: [1] | [2] | [3]

COc1c(NC(=O)c2ccccc2OC(F)(F)F)cccc1C(=O)Nc1c(Cl)cc(C(F)(C(F)(F)F)C(F)(F)F)cc1OC(F)F [Compound 90]
≥ 80%: [1] | [2] | [4] | [3]

COc1ccccc1C(=O)Nc1cccc(C(=O)Nc2c(Cl)cc(C(F)(C(F)(F)F)C(F)(F)F)cc2OC(F)F)c1OC [Compound 91]
≥ 80%: [2] | [4] | [3]

COc1c(NC(=O)c2cccc(F)c2F)cccc1C(=O)Nc1c(Cl)cc(C(F)(C(F)(F)F)C(F)(F)F)cc1OC(F)F [Compound 96]
≥ 80%: [2] | [3] | [5]

COc1c(NC(=O)c2cc(C(F)(F)F)ccc2F)cccc1C(=O)Nc1c(Cl)cc(C(F)(C(F)(F)F)C(F)(F)F)cc1OC(F)F [Compound 98]
≥ 80%: [2]

CCN(C(=O)c1ccccc1OC(F)(F)F)c1cccc(C(=O)Nc2c(Cl)cc(C(F)(C(F)(F)F)C(F)(F)F)cc2OC(F)F)c1F [Compound 118]
≥ 80%: [2] | [4] | [3]

CCN(C(=O)c1ccccc1C(F)(F)F)c1cccc(C(=O)Nc2c(Cl)cc(C(F)(C(F)(F)F)C(F)(F)F)cc2OC(F)F)c1F [Compound 121]
≥ 80%: [1] | [2] | [4] | [3]

CCN(C(=O)c1ccccc1C)c1cccc(C(=O)Nc2c(Br)cc(C(F)(C(F)(F)F)C(F)(F)F)cc2OC(F)F)c1OC [Compound 130]
≥ 80%: [2] | [4] | [3]

CCN(C(=O)c1ccccc1Cl)c1cccc(C(=O)Nc2c(Br)cc(C(F)(C(F)(F)F)C(F)(F)F)cc2OC(F)F)c1OC [Compound 131]
≥ 80%: [1] | [2] | [4] | [3] | [5]

CCN(C(=O)c1ccc(C)cc1)c1cccc(C(=O)Nc2c(Br)cc(C(F)(C(F)(F)F)C(F)(F)F)cc2OC(F)F)c1OC [Compound 132]
≥ 80%: [1] | [2] | [4] | [3] | [5]

CCN(C(=O)c1cc(Cl)ccc1F)c1cccc(C(=O)Nc2c(Br)cc(C(F)(C(F)(F)F)C(F)(F)F)cc2OC(F)F)c1OC [Compound 134]
≥ 80%: [1] | [2] | [4] | [3]

CCN(C(=O)c1ccccc1OC(F)(F)F)c1cccc(C(=O)Nc2c(Br)cc(C(F)(C(F)(F)F)C(F)(F)F)cc2OC(F)F)c1OC [Compound 136]
≥ 80%: [4]

CCN(C(=O)c1ccccc1C(F)(F)F)c1cccc(C(=O)Nc2c(Br)cc(C(F)(C(F)(F)F)C(F)(F)F)cc2OC(F)F)c1OC [Compound 140]
≥ 80%: [1] | [2] | [4] | [3] | [5]

CCN(C(=O)c1cc(C(F)(F)F)ccc1F)c1cccc(C(=O)Nc2c(Br)cc(C(F)(C(F)(F)F)C(F)(F)F)cc2OC(F)F)c1OC [Compound 144]
≥ 80%: [1] | [2] | [3]

CCN(C(=O)c1ccccc1F)c1cccc(C(=O)Nc2c(Cl)cc(C(F)(C(F)(F)F)C(F)(F)F)cc2OC(F)F)c1OC [Compound 145]
≥ 80%: [1] | [2] | [4] | [3]

CCN(C(=O)c1ccccc1C)c1cccc(C(=O)Nc2c(Cl)cc(C(F)(C(F)(F)F)C(F)(F)F)cc2OC(F)F)c1OC [Compound 146]
≥ 80%: [2] | [4] | [3]

CCN(C(=O)c1ccc([N+](=O)[O-])cc1)c1cccc(C(=O)Nc2c(Cl)cc(C(F)(C(F)(F)F)C(F)(F)F)cc2OC(F)F)c1OC [Compound 148]
≥ 80%: [1] | [4]

CCN(C(=O)c1ccc(F)cc1C)c1cccc(C(=O)Nc2c(Cl)cc(C(F)(C(F)(F)F)C(F)(F)F)cc2OC(F)F)c1OC [Compound 150]
≥ 80%: [1] | [2] | [4] | [3]

CCN(C(=O)c1cc(Cl)ccc1F)c1cccc(C(=O)Nc2c(Cl)cc(C(F)(C(F)(F)F)C(F)(F)F)cc2OC(F)F)c1OC [Compound 151]
≥ 80%: [1] | [2] | [4] | [3]

CCN(C(=O)c1ccccc1OC(F)(F)F)c1cccc(C(=O)Nc2c(Cl)cc(C(F)(C(F)(F)F)C(F)(F)F)cc2OC(F)F)c1OC [Compound 153]
≥ 80%: [1] | [4]

CCN(C(=O)c1ccccc1C(F)(F)F)c1cccc(C(=O)Nc2c(Cl)cc(C(F)(C(F)(F)F)C(F)(F)F)cc2OC(F)F)c1OC [Compound 157]
≥ 80%: [1] | [2] | [4] | [3]

CCN(C(=O)c1ccc(F)c(C(F)(F)F)c1)c1cccc(C(=O)Nc2c(Br)cc(C(F)(C(F)(F)F)C(F)(F)F)cc2OC(F)F)c1OC [Compound 163]
≥ 80%: [1] | [4] | [3]
